Experiments:
[1] = tested on: HT29 colorectal carcinoma cells; assay: microarray differential expression in 5-aza-2-deoxycytidine-treated versus untreated HT29 cells; assay type: cell-based, human; details: for D.E. (log2): 500 nM, treated vs untreated HT29 cells
Description: Incyte clones represent template sequences derived from the LIFESEQ GOLD assembled human sequence database (Incyte Genomics). In cases where more than one clone was available for a particular template, the 5′-most clone in the template was used on the microarray. The HUMAN GENOME GEM series 1-4 microarrays (Incyte Genomics) contain 37,715 array elements which represent 12,989 annotated clusters and 24,726 unannotated clusters.
To construct microarrays, cDNAs were amplified from bacterial cells using primers complementary to vector sequences flanking the cDNA insert. Thirty cycles of PCR increased the initial quantity of cDNAs from 1-2 ng to a final quantity greater than 5 μg. Amplified cDNAs were then purified using SEPHACRYL-400 columns (APB). Purified cDNAs were immobilized on polymer-coated glass slides. Glass microscope slides (Corning, Corning N.Y.) were cleaned by ultrasound in 0.1% SDS and acetone, with extensive distilled water washes between and after treatments. Glass slides were etched in 4% hydrofluoric acid (VWR Scientific Products, West Chester Pa.), washed thoroughly in distilled water, and coated with 0.05% aminopropyl silane (Sigma Aldrich) in 95% ethanol. Coated slides were cured in a 110° C. oven. cDNAs were applied to the coated glass substrate using a procedure described in U.S. Pat. No. 5,807,522. One microliter of the cDNA at an average concentration of 100 ng/μl was loaded into the open capillary printing element by a high-speed robotic apparatus which then deposited about 5 nl of cDNA per slide.
Microarrays were UV-crosslinked using a STRATALINKER UV-crosslinker (Stratagene), and then washed at room temperature once in 0.2% SDS and three times in distilled water. Non-specific binding sites were blocked by incubation of microarrays in 0.2% casein in phosphate buffered saline (Tropix, Bedford Mass.) for 30 minutes at 60° C. followed by washes in 0.2% SDS and distilled water as before.
HT29 cells were derived from a Grade II adenocarcinoma of the colon obtained from a person. HT29 adenocarcinoma cells (American Type Culture Collection, Manassas Va.) were cultured in McCoy's medium supplemented with 10% fetal bovine serum (Invitrogen) at 37° C. and 5% CO2. Treated cells were exposed to 500 nM 5-aza-2-deoxycytidine (Sigma-Aldrich) 24 hr after passage in complete culture medium. Control cultures were treated in parallel with phosphate buffered saline vehicle. After twenty-four hours, culture medium was replaced with drug-free medium. Control and 5-aza-2-deoxycytidine-treated cells were subcultured at equal densities at 1 and 5 days after the initial treatment, and proliferation was measured at the subsequent time point using a Coulter counter (Beckman Coulter, Fullerton Calif.). Cells were harvested 9 days after the initial treatment.
Cells were harvested and lysed in 1 ml of TRIZOL reagent (5×10^6 cells/ml; Invitrogen). The lysates were vortexed thoroughly and incubated at room temperature for 2-3 minutes and extracted with 0.5 ml chloroform. The extract was mixed, incubated at room temperature for 5 minutes, and centrifuged at 16,000×g for 15 minutes at 4° C. The aqueous layer was collected and an equal volume of isopropanol was added. Samples were mixed, incubated at room temperature for 10 minutes, and centrifuged at 16,000×g for 20 minutes at 4° C. The supernatant was removed and the RNA pellet was washed with 1 ml of 70% ethanol, centrifuged at 16,000×g at 4° C., and resuspended in RNAse-free water. The concentration of the RNA was determined by measuring the optical density at 260 nm.
Poly(A) RNA was prepared using an OLIGOTEX mRNA kit (Qiagen) with the following modifications: OLIGOTEX beads were washed in tubes instead of on spin columns, resuspended in elution buffer, and then loaded onto spin columns to recover mRNA. To obtain maximum yield, the mRNA was eluted twice. […]

polyp formation = details: in combination with a genetic reduction in DNA methyltransferase I activity; cited from earlier work
HT-29 cells [2] = details: cultured HT-29 cells, colorectal cancer cell line; cited from earlier work
HT-29 cells [3] = details: inhibition parallels induction of IFN responsive genes; cited from earlier work
[4] = treated HT29 cells versus untreated cells

Compound: Nc1ncn([C@H]2C[C@H](O)[C@@H](CO)O2)c(=O)n1 [5-aza-2-deoxycytidine]
- D.E. (log2) ([1]; SEQ ID NO 1, GAGE-8 [Homo sapiens], harvested 9 days after treatment): 3.45 log2
- D.E. (log2) ([1]; SEQ ID NO 2, GAGE-7B [Homo sapiens]): 2.51 log2
- D.E. (log2) ([1]; SEQ ID NO 3, p27 [Homo sapiens]): 2.08 log2
- D.E. (log2) ([1]; SEQ ID NO 4, MAGE-6 antigen [Homo sapiens]): 1.74 log2
- D.E. (log2) ([1]; SEQ ID NO 5, interferon-inducible protein [Homo sapiens]): 1.62 log2
- D.E. (log2) ([1]; SEQ ID NO 6, MAGE-9 antigen [Homo sapiens]): 1.57 log2
- D.E. (log2) ([1]; SEQ ID NO 7, interferon-inducible peptide precursor [Homo sapiens]): 1.56 log2
- D.E. (log2) ([1]; SEQ ID NO 8, transcription factor ISGF-3 [Homo sapiens]): 1.49 log2
- D.E. (log2) ([1]; SEQ ID NO 9, HLA Class I region, chromosome 6p21.3, section 6/20 [Homo sapiens]): 1.40 log2
- D.E. (log2) ([1]; SEQ ID NO 10, hypothetical protein [Homo sapiens]): 1.33 log2
- D.E. (log2) ([1]; SEQ ID NO 11, GAGE-8 protein [Homo sapiens]): 2.67 log2
- D.E. (log2) ([1]; SEQ ID NO 12, putative tumor antigen [Homo sapiens]): 2.57 log2
- D.E. (log2) ([1]; SEQ ID NO 13, semaphorin B [Mus musculus]): 1.92 log2
- D.E. (log2) ([1]; SEQ ID NO 14, Incyte Unique, Template 213413.1): 2.10 log2
- D.E. (log2) ([1]; SEQ ID NO 15, Incyte Unique, Template 032481.1): 1.76 log2
- D.E. (log2) ([1]; SEQ ID NO 16, HLA Class I region, chromosome 6p21.3 [Homo sapiens]): 1.67 log2
- D.E. (log2) ([1]; SEQ ID NO 17, proline rich synapse associated protein 1 [Rattus norvegicus]): 1.66 log2
- D.E. (log2) ([1]; SEQ ID NO 18, hepatitis C-associated microtubular aggregate protein p44 [Homo sapiens]): 1.53 log2
- D.E. (log2) ([1]; SEQ ID NO 19, S100P calcium-binding protein [Homo sapiens], negative = downregulation): −1.34 log2
- D.E. (log2) ([1]; SEQ ID NO 20, G0S2 protein [Homo sapiens], negative = downregulation): −1.41 log2
- D.E. (log2) ([1]; SEQ ID NO 21, progesterone-induced protein [Oryctolagus cuniculus], negative = downregulation): −1.42 log2
- D.E. (log2) ([1]; SEQ ID NO 22, phosphoenolpyruvate carboxykinase [Homo sapiens], negative = downregulation): −1.72 log2
- D.E. (log2) ([1]; SEQ ID NO 23, unnamed protein product [Homo sapiens], negative = downregulation): −1.74 log2
- D.E. (log2) ([1]; SEQ ID NO 24, cystine/glutamate transporter [Homo sapiens], negative = downregulation): −1.81 log2
- D.E. (log2) ([1]; SEQ ID NO 25, Incyte Unique, Template 200578.1, negative = downregulation): −1.63 log2
- differential expression values of each cDNA (SEQ ID NOs: 1-25) ([1]; treated HT29 cells relative to untreated HT29 cells, up- or downregulation): greater than 2.5 fold
- upregulation of SEQ ID NO: 1 [1, 4]: > 5 fold
- upregulation of SEQ ID NO: 2 [1, 4]: > 5 fold
- upregulation of SEQ ID NO: 4 [1, 4]: > 3 fold
- upregulation of SEQ ID NO: 6 [1, 4]: > 3 fold
- upregulation of SEQ ID NO: 11 [1, 4]: > 5 fold
- upregulation of SEQ ID NO: 12 [1, 4]: > 5 fold
- polyp formation (polyp formation): reduced polyp formation
- gene expression after treatment (HT-29 cells [2]): specific expression of several genes related to interferon (IFN) signaling
- growth of HT-29 cells in culture (HT-29 cells [3]): inhibits growth

Source: patent US20030165864A1, “Genes regulated by DNA methylation in tumor cells” (priority 2001, published 2003)
